Data published in patent US10988477B2 (Merck Patent GmbH, priority 2018, dated 2021).

How the values were obtained:
GCN2 kinase = GCN2 kinase (Homo sapiens, UniProt Q9P2K8); assay: GCN2 enzyme inhibition assay (Transcreener ADP2 fluorescence polarization); type: biochemical; details: compounds of Formula II; 280 μM ATP, 4 nM GCN2 kinase
In short: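 Inhibition of 4 nM GCN2 was measured with compound up to 8 μM final, ATP 280 μM and (RS)7 peptide 200 μM over a 1 h, 25 °C reaction. ADP FP readout; IC50 and Ki(app) calculated from percent inhibition.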

[1] = target: intracellular GCN2 (phosphorylation of the GCN2 substrate eIF2α) (Homo sapiens, UniProt Q9P2K8); assay: GCN2 cellular inhibition assay (AlphaScreen SureFire P-eIF2α Ser51, borrelidin-treated U2OS cells); type: cell-based; details: compounds of Formula II; biomarker assay, phosphorylated eIF2α Ser51 in borrelidin-treated U2OS cells
Procedure: Compounds can be screened for their ability to inhibit intracellular GCN2 using an AlphaScreen assay (Perkin Elmer) to detect phosphorylation of the GCN2 substrate eIF2α in borrelidin-treated cells. U2OS cells are plated at 5,000 cells per well in 384-well white polystyrene plates (Corning 3570) in McCoy's 5 A media (GIBCO 26600-023) supplemented with 10% foetal bovine serum (SAFC 12103C), Penicillin/Streptomycin solution diluted 1:100 (Sigma P0781), and 2 mM L-glutamine (Sigma G7513), and allowed to adhere overnight at 37° C. in 5% CO2. Compounds are then added to the cell media from a final concentration of 40 μM in 4-fold serial dilutions. Borrelidin (FluoroChem M01440) is immediately added to the wells to a final concentration of 10 μM and the cells are incubated for 1 h at 37° C. in 5% CO2. After 1 h of treatment with borrelidin, the media is removed, and the cells are lysed with lysis buffer (TGR BioSciences TGRLB) at ambient temperature.
An AlphaScreen SureFire P-eIF2α (Ser51) assay kit (Perkin Elmer TGREIF2S) was used to measure levels of eIF2α phosphorylated on Serine 51. Anti-phosphorylated eIF2α Ser51 antibody-linked acceptor beads (TGR BioScience 6760617) are added to the cell homogenate (diluted 1:250 into a mixture of activation (TGR BioScience TGRAB) and reaction buffer (TGR BioScience TGREIF2S) prepared immediately before use). The plate is then incubated for 2 h at ambient temperature in the dark. Anti-eIF2α antibody-linked donor beads (TGR BioScience 6760617) were then added (diluted 1:100 in dilution buffer (TGR BioScience TGRDB) prepared immediately before use). The plate is then incubated overnight at ambient temperature in the dark.
Plates are analyzed on an Alpha Technology-compatible PHERAstar FS plate reader (BMG Labtech Version 1.14) to quantify phosphorylated eIF2α Ser51 levels. The percentage inhibition of phosphorylated eIF2α is calculated by comparison to control wells stimulated with borrelidin alone.

Chain of GCN2 kinase (Q9P2K8 whole entry): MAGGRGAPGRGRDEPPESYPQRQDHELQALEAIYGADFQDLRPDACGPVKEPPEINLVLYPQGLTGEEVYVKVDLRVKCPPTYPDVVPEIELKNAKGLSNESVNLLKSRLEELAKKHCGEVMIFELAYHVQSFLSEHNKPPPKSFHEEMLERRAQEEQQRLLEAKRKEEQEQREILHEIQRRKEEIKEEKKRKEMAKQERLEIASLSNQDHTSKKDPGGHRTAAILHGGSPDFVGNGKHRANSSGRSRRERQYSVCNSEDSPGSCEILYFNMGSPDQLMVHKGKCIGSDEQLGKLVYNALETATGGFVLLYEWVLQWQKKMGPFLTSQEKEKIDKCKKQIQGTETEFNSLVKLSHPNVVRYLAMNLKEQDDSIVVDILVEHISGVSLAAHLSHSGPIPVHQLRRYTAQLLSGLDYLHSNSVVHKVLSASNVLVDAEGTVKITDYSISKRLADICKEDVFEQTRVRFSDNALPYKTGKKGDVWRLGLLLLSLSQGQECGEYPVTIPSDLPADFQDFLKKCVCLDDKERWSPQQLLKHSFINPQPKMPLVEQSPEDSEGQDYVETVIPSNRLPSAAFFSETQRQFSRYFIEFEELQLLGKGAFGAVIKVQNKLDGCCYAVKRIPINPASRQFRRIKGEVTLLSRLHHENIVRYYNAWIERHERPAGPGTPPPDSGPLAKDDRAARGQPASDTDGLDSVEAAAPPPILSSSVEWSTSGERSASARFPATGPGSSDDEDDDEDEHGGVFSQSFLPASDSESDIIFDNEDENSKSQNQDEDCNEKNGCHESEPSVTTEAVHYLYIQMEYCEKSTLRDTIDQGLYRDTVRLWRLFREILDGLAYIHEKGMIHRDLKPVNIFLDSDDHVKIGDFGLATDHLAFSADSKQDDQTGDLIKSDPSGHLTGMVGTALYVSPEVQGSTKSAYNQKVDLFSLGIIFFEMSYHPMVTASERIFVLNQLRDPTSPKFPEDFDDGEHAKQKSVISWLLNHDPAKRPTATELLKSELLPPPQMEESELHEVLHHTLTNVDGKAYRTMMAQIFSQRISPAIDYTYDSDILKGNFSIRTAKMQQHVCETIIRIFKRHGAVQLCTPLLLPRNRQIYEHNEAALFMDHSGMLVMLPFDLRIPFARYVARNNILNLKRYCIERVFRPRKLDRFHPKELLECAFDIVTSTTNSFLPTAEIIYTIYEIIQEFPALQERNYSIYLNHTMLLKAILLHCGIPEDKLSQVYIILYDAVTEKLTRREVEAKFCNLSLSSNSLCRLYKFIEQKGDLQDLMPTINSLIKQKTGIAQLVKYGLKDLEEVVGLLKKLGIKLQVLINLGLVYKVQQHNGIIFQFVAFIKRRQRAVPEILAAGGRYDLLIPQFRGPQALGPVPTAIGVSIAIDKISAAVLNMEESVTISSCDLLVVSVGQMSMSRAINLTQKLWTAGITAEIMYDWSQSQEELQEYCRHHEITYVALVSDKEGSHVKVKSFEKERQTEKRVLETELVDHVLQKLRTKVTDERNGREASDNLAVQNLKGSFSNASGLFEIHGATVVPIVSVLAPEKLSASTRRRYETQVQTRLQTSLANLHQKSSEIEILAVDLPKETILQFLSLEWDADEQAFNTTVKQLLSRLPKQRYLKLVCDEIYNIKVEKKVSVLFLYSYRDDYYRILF
Chain of intracellular GCN2 (phosphorylation of the GCN2 substrate eIF2α) (Q9P2K8 whole entry): as above

Ki (GCN2 kinase) [nM] | IC50 [1] [nM] | Compound
10 to 1000 | 500 to 5000 | CS(=O)(=O)N1CCCC(c2cc(-c3cnc4ccc(C(F)F)nn34)ncn2)CC1 (single isomer, unassigned) [II-276, 6-(Difluoromethyl)-3-(6-(1-(methylsulfonyl)azepan-4-yl)pyrimidin-4-yl)imidazo[1,2-b]pyridazine]
< 10 | 500 to 5000 | NS(=O)(=O)NCC1CCCN(c2cc(-c3cnc4ccc(C(F)F)nn34)ncn2)C1 (single isomer, unassigned) [II-277]
< 10 | < 500 | NS(=O)(=O)NCC1CCCN(c2cc(-c3cnc4ccc(C(F)F)nn34)ncn2)C1 (single isomer, unassigned) [II-278]
10 to 1000 | 500 to 5000 | CC1C(CNS(C)(=O)=O)C(F)(F)CCN1c1cc(-c2cnc3ccc(C(F)F)nn23)ncn1 (single isomer, unassigned) [II-302, N-((1-(6-(6-(Difluoromethyl)imidazo[1,2-b]pyridazin-3-yl)pyrimidin-4-yl)-4,4-difluoro-2-methylpiperidin-3-yl)methyl)methanesulfonamide]
10 to 1000 | 500 to 5000 | CC1C(CNS(C)(=O)=O)C(F)(F)CCN1c1cc(-c2cnc3ccc(C(F)F)nn23)ncn1 (single isomer, unassigned) [II-303, N-((1-(6-(6-(Difluoromethyl)imidazo[1,2-b]pyridazin-3-yl)pyrimidin-4-yl)-4,4-difluoro-2-methylpiperidin-3-yl)methyl)methanesulfonamide]
< 10 | < 500 | CC1CC(F)(F)C(CNS(C)(=O)=O)CN1c1cc(-c2cnc3ccc(C(F)F)nn23)ncn1 (single isomer, unassigned) [II-304, N-((1-(6-(6-(Difluoromethyl)imidazo[1,2-b]pyridazin-3-yl)pyrimidin-4-yl)-4,4-difluoro-6-methylpiperidin-3-yl)methyl)methanesulfonamide]
10 to 1000 | > 5000 | CC1CC(F)(F)C(CNS(C)(=O)=O)CN1c1cc(-c2cnc3ccc(C(F)F)nn23)ncn1 (single isomer, unassigned) [II-305, N-((1-(6-(6-(Difluoromethyl)imidazo[1,2-b]pyridazin-3-yl)pyrimidin-4-yl)-4,4-difluoro-6-methylpiperidin-3-yl)methyl)methanesulfonamide]
10 to 1000 | > 5000 | CC1C[S+]([O-])CCN1c1cc(-c2cnc3ccc(C(F)F)nn23)ncn1 (single isomer, unassigned) [II-355, 4-(6-(6-(Difluoromethyl)imidazo[1,2-b]pyridazin-3-yl)pyrimidin-4-yl)-3-methylthiomorpholine 1-oxide]
10 to 1000 | > 5000 | CC1C[S+]([O-])CCN1c1cc(-c2cnc3ccc(C(F)F)nn23)ncn1 (single isomer, unassigned) [II-356, 4-(6-(6-(Difluoromethyl)imidazo[1,2-b]pyridazin-3-yl)pyrimidin-4-yl)-3-methylthiomorpholine 1-oxide]

More lines, now with the values behind:

Compound | Ki (GCN2 kinase) [nM] | IC50 [1] [nM]
CS(=O)(=O)NCC1CN(c2cc(-c3cnc4ccc(C(F)F)nn34)ncn2)CCC1(F)F (single isomer, unassigned) [II-2, N-((1-(6-(6-(Difluoromethyl)imidazo[1,2-b]pyridazin-3-yl)pyrimidin-4-yl)-4,4-difluoropiperidin-3-yl)methyl)methanesulfonamide] | < 10 | 500 to 5000
CC1(O)CC(CNS(C)(=O)=O)CN(c2cc(-c3cnc4ccc(C(F)F)nn34)ncn2)C1 (single isomer, unassigned) [II-5, N-((1-(6-(6-(Difluoromethyl)imidazo[1,2-b]pyridazin-3-yl)pyrimidin-4-yl)-5-hydroxy-5-methylpiperidin-3-yl)methyl)methanesulfonamide] | 10 to 1000 | > 5000
CC1(O)CC(CNS(C)(=O)=O)CN(c2cc(-c3cnc4ccc(C(F)F)nn34)ncn2)C1 (single isomer, unassigned) [II-6, N-((1-(6-(6-(Difluoromethyl)imidazo[1,2-b]pyridazin-3-yl)pyrimidin-4-yl)-5-hydroxy-5-methylpiperidin-3-yl)methyl)methanesulfonamide] | 10 to 1000 | 500 to 5000
CS(=O)(=O)NC1CCC2(CCN(c3cc(-c4cnc5ccc(C(F)F)nn45)ncn3)C2)C1 (single isomer, unassigned) [II-95, N-(2-(6-(6-(Difluoromethyl)imidazo[1,2-b]pyridazin-3-yl)pyrimidin-4-yl)-2-azaspiro[4.4]nonan-7-yl)methanesulfonamide] | 10 to 1000 | 500 to 5000
CS(=O)(=O)NC1CCC2(CCN(c3cc(-c4cnc5ccc(C(F)F)nn45)ncn3)C2)C1 (single isomer, unassigned) [II-100, N-(2-(6-(6-(Difluoromethyl)imidazo[1,2-b]pyridazin-3-yl)pyrimidin-4-yl)-2-azaspiro[4.4]nonan-7-yl)methanesulfonamide] | 10 to 1000 | 500 to 5000
FC(F)(F)c1ccc2ncc(-c3ccnc(N4CCOC(c5cn[nH]c5)C4)c3)n2n1 (single isomer, unassigned) [II-229, 2-(1H-Pyrazol-4-yl)-4-(4-(6-(trifluoromethyl)imidazo[1,2-b]pyridazin-3-yl)pyridin-2-yl)morpholine] | < 10 | < 500
FC(F)(F)c1ccc2ncc(-c3ccnc(N4CCOC(c5cn[nH]c5)C4)c3)n2n1 (single isomer, unassigned) [II-230, 2-(1H-Pyrazol-4-yl)-4-(4-(6-(trifluoromethyl)imidazo[1,2-b]pyridazin-3-yl)pyridin-2-yl)morpholine] | < 10 | < 500
COC1CC(CNS(C)(=O)=O)CN(c2cc(-c3cnc4ccc(C(F)F)nn34)ncn2)C1 (single isomer, unassigned) [II-233, N-((1-(6-(6-(Difluoromethyl)imidazo[1,2-b]pyridazin-3-yl)pyrimidin-4-yl)-5-methoxypiperidin-3-yl)methyl)methanesulfonamide] | < 10 | < 500
FC(F)c1ccc2ncc(-c3cc(C4CCCN(C5COC5)C4)ncn3)n2n1 (single isomer, unassigned) [II-241, 6-(Difluoromethyl)-3-(6-(1-(oxetan-3-yl)piperidin-3-yl)pyrimidin-4-yl)imidazo[1,2-b]pyridazine] | > 1000 | > 5000
FC(F)c1ccc2ncc(-c3cc(C4CCCN(C5COC5)C4)ncn3)n2n1 (single isomer, unassigned) [II-242, 6-(Difluoromethyl)-3-(6-(1-(oxetan-3-yl)piperidin-3-yl)pyrimidin-4-yl)imidazo[1,2-b]pyridazine] | 10 to 1000 | > 5000
CC1C(CNS(C)(=O)=O)CCCN1c1cc(-c2cnc3ccc(C(F)F)nn23)ncn1 (single isomer, unassigned) [II-263, N-((1-(6-(6-(Difluoromethyl)imidazo[1,2-b]pyridazin-3-yl)pyrimidin-4-yl)-2-methylpiperidin-3-yl)methyl)methanesulfonamide] | 10 to 1000 | 500 to 5000
CC1C(CNS(C)(=O)=O)CCCN1c1cc(-c2cnc3ccc(C(F)F)nn23)ncn1 (single isomer, unassigned) [II-264, N-((1-(6-(6-(Difluoromethyl)imidazo[1,2-b]pyridazin-3-yl)pyrimidin-4-yl)-2-methylpiperidin-3-yl)methyl)methanesulfonamide] | 10 to 1000 | > 5000
CC1C(CNS(C)(=O)=O)CCCN1c1cc(-c2cnc3ccc(C(F)F)nn23)ncn1 (single isomer, unassigned) [II-265, N-((1-(6-(6-(Difluoromethyl)imidazo[1,2-b]pyridazin-3-yl)pyrimidin-4-yl)-2-methylpiperidin-3-yl)methyl)methanesulfonamide] | 10 to 1000 | > 5000
CC1C(CNS(C)(=O)=O)CCCN1c1cc(-c2cnc3ccc(C(F)F)nn23)ncn1 (single isomer, unassigned) [II-266, N-((1-(6-(6-(Difluoromethyl)imidazo[1,2-b]pyridazin-3-yl)pyrimidin-4-yl)-2-methylpiperidin-3-yl)methyl)methanesulfonamide] | < 10 | < 500
CS(=O)(=O)N1CCCC(c2cc(-c3cnc4ccc(C(F)F)nn34)ncn2)CC1 (single isomer, unassigned) [II-275, 6-(Difluoromethyl)-3-(6-(1-(methylsulfonyl)azepan-4-yl)pyrimidin-4-yl)imidazo[1,2-b]pyridazine] | 10 to 1000 | 500 to 5000
